Laboratory results published in ChEMBL document CHEMBL1909046, “DrugMatrix in vitro pharmacology data”.
pIC50, pKi: −log10 of the molar value.

What was measured:
[1] = biological target: T1, 5-hydroxytryptamine receptor 2C (Homo sapiens, UniProt P28335); assay: DRUGMATRIX: Serotonin (5-Hydroxytryptamine) 5-HT2C radioligand binding (ligand: [3H] Mesulergine); format: cell membranes, CHO-K1, Membrane; details: cho-k1; Not Active = under 50% inhibition at 10 µM
T1 sequence (P28335 whole entry): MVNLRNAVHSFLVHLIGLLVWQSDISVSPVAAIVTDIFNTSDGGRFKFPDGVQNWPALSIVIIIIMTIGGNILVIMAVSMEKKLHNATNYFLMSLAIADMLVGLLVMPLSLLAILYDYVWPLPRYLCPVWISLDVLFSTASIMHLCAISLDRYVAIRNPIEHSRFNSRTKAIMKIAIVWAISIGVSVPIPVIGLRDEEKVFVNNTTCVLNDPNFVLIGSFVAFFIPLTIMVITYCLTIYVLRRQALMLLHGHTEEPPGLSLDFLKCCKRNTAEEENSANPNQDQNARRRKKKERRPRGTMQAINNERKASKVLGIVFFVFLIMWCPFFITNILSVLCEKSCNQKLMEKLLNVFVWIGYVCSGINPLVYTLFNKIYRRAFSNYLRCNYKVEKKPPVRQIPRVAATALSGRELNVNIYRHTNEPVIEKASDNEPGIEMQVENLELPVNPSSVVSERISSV

[2] = biological target: T2, Amine oxidase [flavin-containing] A (Homo sapiens, UniProt P21397); assay: DRUGMATRIX: Monoamine Oxidase MAO-A enzyme inhibition (substrate: Kynuramine); parameters: species or system BTI-TN-5B1-4; details: bti-tn-5b1-4; Not Active = under 50% inhibition at 10 µM
T2 sequence (P21397 whole entry): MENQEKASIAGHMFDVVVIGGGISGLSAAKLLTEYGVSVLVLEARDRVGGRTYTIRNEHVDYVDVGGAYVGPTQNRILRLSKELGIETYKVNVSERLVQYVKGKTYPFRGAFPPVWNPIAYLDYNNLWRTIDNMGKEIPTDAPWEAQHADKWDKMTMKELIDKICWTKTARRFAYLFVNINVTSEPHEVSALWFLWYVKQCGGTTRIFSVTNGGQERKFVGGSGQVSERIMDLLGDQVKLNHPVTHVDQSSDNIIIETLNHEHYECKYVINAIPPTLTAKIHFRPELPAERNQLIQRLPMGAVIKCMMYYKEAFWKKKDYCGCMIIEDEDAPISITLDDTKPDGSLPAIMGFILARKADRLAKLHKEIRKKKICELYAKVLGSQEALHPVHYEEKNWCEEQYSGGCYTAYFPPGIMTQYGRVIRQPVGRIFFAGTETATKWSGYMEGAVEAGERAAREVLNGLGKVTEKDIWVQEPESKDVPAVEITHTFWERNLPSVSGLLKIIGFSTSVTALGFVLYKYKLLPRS

[3] = biological target: Mitogen-activated protein kinase 3 (Homo sapiens, UniProt P27361); assay: DRUGMATRIX: Protein Serine/Threonine Kinase, ERK1 enzyme inhibition (substrate: Myelin Basic Protein); parameters: species or system Escherichia coli; details: Not Active = under 50% inhibition at 10 µM
Mitogen-activated protein kinase 3, sequence (P27361 whole entry): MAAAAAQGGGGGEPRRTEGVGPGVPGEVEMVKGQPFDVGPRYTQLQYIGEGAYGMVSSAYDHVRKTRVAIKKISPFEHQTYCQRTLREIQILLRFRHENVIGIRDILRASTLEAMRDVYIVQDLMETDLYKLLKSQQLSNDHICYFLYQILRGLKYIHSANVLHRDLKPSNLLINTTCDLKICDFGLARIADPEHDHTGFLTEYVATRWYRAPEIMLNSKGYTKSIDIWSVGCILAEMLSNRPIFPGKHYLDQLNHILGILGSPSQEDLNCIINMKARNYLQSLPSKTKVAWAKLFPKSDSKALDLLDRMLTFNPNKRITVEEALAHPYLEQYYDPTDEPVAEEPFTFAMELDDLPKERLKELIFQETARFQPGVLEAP

[4] = biological target: Adenosine receptor A2a (Homo sapiens, UniProt P29274); assay: DRUGMATRIX: Adenosine A2A radioligand binding (ligand: […]); format: cell membranes, HEK293, Membrane; details: hek293; Not Active = under 50% inhibition at 10 µM
Adenosine receptor A2a, sequence (P29274 whole entry): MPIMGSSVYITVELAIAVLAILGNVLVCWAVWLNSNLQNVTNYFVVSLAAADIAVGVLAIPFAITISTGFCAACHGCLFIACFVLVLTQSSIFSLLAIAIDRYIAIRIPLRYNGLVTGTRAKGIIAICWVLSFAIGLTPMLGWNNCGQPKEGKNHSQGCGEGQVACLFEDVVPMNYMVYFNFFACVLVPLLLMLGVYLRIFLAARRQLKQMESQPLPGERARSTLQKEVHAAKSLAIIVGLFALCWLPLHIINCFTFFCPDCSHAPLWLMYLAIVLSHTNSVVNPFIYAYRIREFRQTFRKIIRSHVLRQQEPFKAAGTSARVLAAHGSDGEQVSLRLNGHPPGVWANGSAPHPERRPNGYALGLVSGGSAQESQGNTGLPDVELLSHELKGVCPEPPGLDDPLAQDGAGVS

[5] = biological target: T3, Neuropeptide Y receptor type 2 (Homo sapiens, UniProt P49146); format: cell membranes, Membrane; details: kan-ts; also: in other assays of this panel Not Active means under 50% inhibition at 10 µM
T3 sequence (P49146 whole entry): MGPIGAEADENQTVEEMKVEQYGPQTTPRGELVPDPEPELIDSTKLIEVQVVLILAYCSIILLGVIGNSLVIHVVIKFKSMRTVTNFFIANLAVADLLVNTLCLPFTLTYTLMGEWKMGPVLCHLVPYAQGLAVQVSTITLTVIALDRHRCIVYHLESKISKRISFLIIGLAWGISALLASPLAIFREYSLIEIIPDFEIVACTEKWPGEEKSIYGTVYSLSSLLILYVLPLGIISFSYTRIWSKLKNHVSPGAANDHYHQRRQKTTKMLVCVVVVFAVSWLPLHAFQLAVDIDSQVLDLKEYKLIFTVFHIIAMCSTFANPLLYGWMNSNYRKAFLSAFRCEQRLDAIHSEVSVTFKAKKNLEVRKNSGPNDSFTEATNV

[6] = DRUGMATRIX: Calcium Channel Type L, Dihydropyridine radioligand binding (ligand: [3H] Nitrendipine); format: cell membranes, Rattus norvegicus, Wistar, Cerebral cortex, Membrane; details: Not Active = under 50% inhibition at 10 µM
[7] = biological target: T4, Alpha-1A adrenergic receptor (Rattus norvegicus, UniProt P43140); assay: DRUGMATRIX: Alpha-1A adrenergic receptor radioligand binding (ligand: prazosin); format: cell membranes, Wistar, Submaxillary gland, Membrane; details: Not Active = under 50% inhibition at 10 µM; for pIC50: read-out: IC50; for pKi: read-out: Ki
T4 sequence (P43140 whole entry): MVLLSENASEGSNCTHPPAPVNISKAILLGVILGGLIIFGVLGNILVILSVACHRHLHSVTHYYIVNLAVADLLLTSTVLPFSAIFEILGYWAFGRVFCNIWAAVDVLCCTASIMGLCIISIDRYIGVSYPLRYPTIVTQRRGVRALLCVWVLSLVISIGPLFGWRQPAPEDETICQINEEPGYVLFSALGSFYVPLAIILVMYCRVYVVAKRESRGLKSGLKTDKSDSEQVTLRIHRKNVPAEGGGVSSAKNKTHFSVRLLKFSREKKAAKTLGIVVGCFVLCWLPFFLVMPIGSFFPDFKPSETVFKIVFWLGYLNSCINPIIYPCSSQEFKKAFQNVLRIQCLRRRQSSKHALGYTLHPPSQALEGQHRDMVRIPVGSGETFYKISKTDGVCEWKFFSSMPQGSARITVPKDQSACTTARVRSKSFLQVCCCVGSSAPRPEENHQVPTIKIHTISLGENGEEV

[8] = biological target: C-C chemokine receptor type 5 (Homo sapiens, UniProt P51681); format: cell membranes, Membrane; details: hek293; also: in other assays of this panel Not Active means under 50% inhibition at 10 µM
C-C chemokine receptor type 5, sequence (P51681 whole entry): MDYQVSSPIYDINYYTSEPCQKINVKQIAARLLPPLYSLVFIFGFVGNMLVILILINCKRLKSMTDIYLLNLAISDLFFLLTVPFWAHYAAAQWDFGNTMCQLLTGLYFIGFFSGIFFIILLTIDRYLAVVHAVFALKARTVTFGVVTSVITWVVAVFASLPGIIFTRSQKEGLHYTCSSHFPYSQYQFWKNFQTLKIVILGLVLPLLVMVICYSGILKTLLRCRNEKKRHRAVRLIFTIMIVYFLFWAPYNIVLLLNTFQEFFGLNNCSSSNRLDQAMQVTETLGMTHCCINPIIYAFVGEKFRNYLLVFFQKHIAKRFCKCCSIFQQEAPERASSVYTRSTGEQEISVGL

[9] = biological target: T5, Progesterone receptor (Bos taurus, UniProt Q690N0); assay: DRUGMATRIX: Progesterone radioligand binding (ligand: [3H] R-5020); format: tissue-based, Uterus; details: Not Active = under 50% inhibition at 10 µM
T5 sequence (Q690N0 whole entry): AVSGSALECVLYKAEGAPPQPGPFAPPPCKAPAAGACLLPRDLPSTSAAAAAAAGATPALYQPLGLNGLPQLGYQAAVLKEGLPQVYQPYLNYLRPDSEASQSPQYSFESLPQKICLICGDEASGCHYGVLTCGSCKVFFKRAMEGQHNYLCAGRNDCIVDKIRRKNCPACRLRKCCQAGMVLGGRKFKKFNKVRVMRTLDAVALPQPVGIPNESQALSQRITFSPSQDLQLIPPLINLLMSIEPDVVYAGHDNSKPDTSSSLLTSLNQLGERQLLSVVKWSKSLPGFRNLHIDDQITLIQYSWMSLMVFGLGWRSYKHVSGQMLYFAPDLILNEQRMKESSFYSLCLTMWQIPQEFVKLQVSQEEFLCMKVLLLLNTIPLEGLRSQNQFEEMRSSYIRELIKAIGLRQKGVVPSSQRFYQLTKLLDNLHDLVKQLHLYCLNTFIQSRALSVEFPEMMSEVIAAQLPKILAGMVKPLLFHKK

[10] = DRUGMATRIX: Leukotriene, BLT (LTB4) radioligand binding (ligand: [3H]LTB4); format: cell membranes, Membrane; details: u-937; Not Active = under 50% inhibition at 10 µM

CCOC(=O)[C@H](CCc1ccccc1)N[C@@H](C)C(=O)N1[C@H](C(=O)O)C[C@@H]2CCC[C@@H]21
IC50 [1]: Not Active
IC50 [2]: Not Active
IC50 [3]: Not Active
IC50 [4]: Not Active
IC50 [5]: Not Active
IC50 [6]: Not Active
Ki [6]: Not Active
IC50 [7]: Not Active
IC50 [8]: Not Active
IC50 [9]: Not Active
IC50 [10]: Not Active
Ki [10]: Not Active

CC1(C)[C@H]2CC[C@]1(C)C(=O)C2 [(-)-CAMPHOR]
IC50 [1]: Not Active
IC50 [2]: Not Active
IC50 [3]: Not Active
IC50 [4]: Not Active
IC50 [5]: Not Active
IC50 [6]: Not Active
Ki [6]: Not Active
IC50 [7]: Not Active
IC50 [8]: Not Active
IC50 [9]: Not Active
IC50 [10]: Not Active
Ki [10]: Not Active

CC(C)(C)NCC(O)c1ccc(O)c(CO)c1 (centres undefined) [ALBUTEROL]
IC50 [1]: Not Active
IC50 [2]: Not Active
IC50 [3]: Not Active
IC50 [4]: Not Active
IC50 [5]: Not Active
IC50 [6]: Not Active
Ki [6]: Not Active
IC50 [7]: Not Active
IC50 [8]: Not Active
IC50 [9]: Not Active
IC50 [10]: Not Active
Ki [10]: Not Active

Oc1c(I)cc(I)c2cccnc12 [IODOQUINOL]
IC50 [1]: Not Active
IC50 [2]: Not Active
pIC50 ([3]; read-out: IC50): 5.28
IC50 [4]: Not Active
IC50 [5]: Not Active
IC50 [6]: Not Active
Ki [6]: Not Active
IC50 [7]: Not Active
IC50 [8]: Not Active
IC50 [9]: Not Active
IC50 [10]: Not Active
Ki [10]: Not Active

NNC(=O)c1ccncc1 [ISONIAZID]
IC50 [1]: Not Active
IC50 [2]: Not Active
IC50 [3]: Not Active
IC50 [4]: Not Active
IC50 [5]: Not Active
IC50 [6]: Not Active
Ki [6]: Not Active
IC50 [7]: Not Active
IC50 [8]: Not Active
IC50 [9]: Not Active
IC50 [10]: Not Active
Ki [10]: Not Active

CC1=C(/C=C/C(C)=C/C=C/C(C)=C\C(=O)O)C(C)(C)CCC1 [ISOTRETINOIN]
IC50 [1]: Not Active
IC50 [2]: Not Active
IC50 [3]: Not Active
IC50 [4]: Not Active
IC50 [5]: Not Active
IC50 [6]: Not Active
Ki [6]: Not Active
IC50 [7]: Not Active
IC50 [8]: Not Active
IC50 [9]: Not Active
IC50 [10]: Not Active
Ki [10]: Not Active

CO[C@@H]1[C@@H](O[C@@H]2O[C@H](C)[C@@H](O[C@H]3C[C@@](C)(O)[C@@H](OC(=O)CC(C)C)[C@H](C)O3)[C@H](N(C)C)[C@H]2O)[C@@H](CC=O)C[C@@H](C)[C@@H](O)/C=C/C=C/C[C@@H](C)OC(=O)C[C@H]1O [KITASAMYCIN]
IC50 [1]: Not Active
IC50 [2]: Not Active
IC50 [3]: Not Active
IC50 [4]: Not Active
IC50 [5]: Not Active
IC50 [6]: Not Active
Ki [6]: Not Active
pIC50 [7]: 5.81
pKi [7]: 6.20
IC50 [8]: Not Active
IC50 [9]: Not Active
IC50 [10]: Not Active
Ki [10]: Not Active

CC(CCc1ccccc1)NCC(O)c1ccc(O)c(C(N)=O)c1 (centres undefined) [LABETALOL]
IC50 [1]: Not Active
IC50 [2]: Not Active
IC50 [3]: Not Active
IC50 [4]: Not Active
IC50 [5]: Not Active
IC50 [6]: Not Active
Ki [6]: Not Active
pIC50 [7]: 7.24
pKi [7]: 7.64
IC50 [8]: Not Active
IC50 [9]: Not Active
IC50 [10]: Not Active
Ki [10]: Not Active

Nc1nnc(-c2cccc(Cl)c2Cl)c(N)n1 [LAMOTRIGINE]
IC50 [1]: Not Active
IC50 [2]: Not Active
IC50 [3]: Not Active
IC50 [4]: Not Active
IC50 [5]: Not Active
IC50 [6]: Not Active
Ki [6]: Not Active
IC50 [7]: Not Active
IC50 [8]: Not Active
IC50 [9]: Not Active
IC50 [10]: Not Active
Ki [10]: Not Active

NCCCC[C@H](N[C@@H](CCc1ccccc1)C(=O)O)C(=O)N1CCC[C@H]1C(=O)O [LISINOPRIL ANHYDROUS]
IC50 [1]: Not Active
IC50 [2]: Not Active
IC50 [3]: Not Active
IC50 [4]: Not Active
IC50 [5]: Not Active
IC50 [6]: Not Active
Ki [6]: Not Active
IC50 [7]: Not Active
IC50 [8]: Not Active
IC50 [9]: Not Active
IC50 [10]: Not Active
Ki [10]: Not Active

COC(=O)c1ccc(O)cc1 [METHYLPARABEN]
IC50 [1]: Not Active
IC50 [2]: Not Active
IC50 [3]: Not Active
IC50 [4]: Not Active
IC50 [5]: Not Active
IC50 [6]: Not Active
Ki [6]: Not Active
IC50 [7]: Not Active
IC50 [8]: Not Active
IC50 [9]: Not Active
IC50 [10]: Not Active
Ki [10]: Not Active
